Organism: Rattus norvegicus
Experiment: Open TG-GATES - Regimen: Single
Assay type: toxicity, organism-based, Sprague-Dawley
Parameters: regimen Single, gender Male, age 6 weeks
Details: in vivo, po, 60 mg/kg, route gavage, dose level Middle; for APTT / Bas / Eos / Fbg / Hb / Ht / Lym / MCH / MCHC / MCV / Mono / Neu / PT / Plat / RBC / Ret / WBC: tissue Blood; for KIDNEY_L / KIDNEY_R / KIDNEY_TOTAL: tissue Kidney; for LIVER: tissue Liver; for A/G / ALP / ALT / AST / BUN / CRE / Ca / Cl / DBIL / GLC / IP / K / LDH / Na / PL / RALB / TBIL / TC / TG / TP / gamma-GTP: tissue Plasma

Structure (SMILES): CC(CN1c2ccccc2Sc2ccccc21)N(C)C (configuration not stated) [PROMETHAZINE]
- TERMINAL_BW (3 h): 213.4 g
- APTT (3 h): 22.4 s
- Bas (3 h): 0%
- Eos (3 h): 1%
- Fbg (3 h): 317 mg/dL
- Hb (3 h): 13.2 g/dL
- Ht (3 h): 40.6%
- Lym (3 h): 71.6%
- MCH (3 h): 20.2 pg
- MCHC (3 h): 32.6%
- MCV (3 h): 62 fL
- Mono (3 h): 2.2%
- Neu (3 h): 25%
- PT (3 h): 16.4 s
- Plat (3 h): 126 x10_4/uL
- RBC (3 h): 655.2 x10_4/ul
- Ret (3 h): 7.3%
- WBC (3 h): 64.7 x10_2/uL
- KIDNEY_L (3 h): 0.9 g
- KIDNEY_R (3 h): 0.9 g
- KIDNEY_TOTAL (3 h): 1.9 g
- LIVER (3 h): 9.3 g
- A/G (3 h): 1.3
- ALP (3 h): 1673 IU/L
- ALT (3 h): 56.2 IU/L
- AST (3 h): 87.6 IU/L
- BUN (3 h): 9.6 mg/dL
- CRE (3 h): 0.2 mg/dL
- Ca (3 h): 10.5 mg/dL
- Cl (3 h): 105.6 meq/L
- DBIL (3 h): 0.024 mg/dL
- GLC (3 h): 172.8 mg/dL
- IP (3 h): 9.6 mg/dL
- K (3 h): 4.3 meq/L
- LDH (3 h): 222.6 IU/L
- Na (3 h): 142.6 meq/L
- PL (3 h): 132 mg/dL
- RALB (3 h): 3.1 g/dL
- TBIL (3 h): 0.016 mg/dL
- TC (3 h): 75 mg/dL
- TG (3 h): 50 mg/dL
- TP (3 h): 5.5 g/dL
- gamma-GTP (3 h): 1.2 IU/L
- TERMINAL_BW (6 h): 210 g
- APTT (6 h): 23.8 s
- Bas (6 h): 0%
- Eos (6 h): 0.8%
- Fbg (6 h): 322 mg/dL
- Hb (6 h): 13.4 g/dL
- Ht (6 h): 40.7%
- Lym (6 h): 77.2%
- MCH (6 h): 20.1 pg
- MCHC (6 h): 33%
- MCV (6 h): 61.1 fL
- Mono (6 h): 2.8%
- Neu (6 h): 18.4%
- PT (6 h): 16.3 s
- Plat (6 h): 112.6 x10_4/uL
- RBC (6 h): 667.8 x10_4/ul
- Ret (6 h): 7.3%
- WBC (6 h): 85.9 x10_2/uL
- KIDNEY_L (6 h): 0.9 g
- KIDNEY_R (6 h): 0.9 g
- KIDNEY_TOTAL (6 h): 1.8 g
- LIVER (6 h): 8.6 g
- A/G (6 h): 1.3
- ALP (6 h): 1478.6 IU/L
- ALT (6 h): 43.2 IU/L
- AST (6 h): 74.6 IU/L
- BUN (6 h): 9.4 mg/dL
- CRE (6 h): 0.2 mg/dL
- Ca (6 h): 10.9 mg/dL
- Cl (6 h): 105.2 meq/L
- DBIL (6 h): 0.016 mg/dL
- GLC (6 h): 180.6 mg/dL
- IP (6 h): 9.6 mg/dL
- K (6 h): 4.3 meq/L
- LDH (6 h): 192.2 IU/L
- Na (6 h): 141.8 meq/L
- PL (6 h): 125 mg/dL
- RALB (6 h): 3 g/dL
- TBIL (6 h): 0.022 mg/dL
- TC (6 h): 71.6 mg/dL
- TG (6 h): 49 mg/dL
- TP (6 h): 5.5 g/dL
- gamma-GTP (6 h): 1.4 IU/L
- TERMINAL_BW (9 h): 211 g
- APTT (9 h): 24.1 s
- Bas (9 h): 0%
- Eos (9 h): 1%
- Fbg (9 h): 315.8 mg/dL
- Hb (9 h): 13.3 g/dL
- Ht (9 h): 40.8%
- Lym (9 h): 78.6%
- MCH (9 h): 20.4 pg
- MCHC (9 h): 32.6%
- MCV (9 h): 62.5 fL
- Mono (9 h): 3%
- Neu (9 h): 17.2%
- PT (9 h): 16.6 s
- Plat (9 h): 122 x10_4/uL
- RBC (9 h): 652.4 x10_4/ul
- Ret (9 h): 7.6%
- WBC (9 h): 101.4 x10_2/uL
- KIDNEY_L (9 h): 0.9 g
- KIDNEY_R (9 h): 0.9 g
- KIDNEY_TOTAL (9 h): 1.8 g
- LIVER (9 h): 8.3 g
- A/G (9 h): 1.3
- ALP (9 h): 1318.2 IU/L
- ALT (9 h): 43.2 IU/L
- AST (9 h): 69.6 IU/L
- BUN (9 h): 11.6 mg/dL
- CRE (9 h): 0.2 mg/dL
- Ca (9 h): 10.7 mg/dL
- Cl (9 h): 106.2 meq/L
- DBIL (9 h): 0.02 mg/dL
- GLC (9 h): 179.2 mg/dL
- IP (9 h): 9.5 mg/dL
- K (9 h): 4.2 meq/L
- LDH (9 h): 155.8 IU/L
- Na (9 h): 140.2 meq/L
- PL (9 h): 131 mg/dL
- RALB (9 h): 3 g/dL
- TBIL (9 h): 0.026 mg/dL
- TC (9 h): 77 mg/dL
- TG (9 h): 46.8 mg/dL
- TP (9 h): 5.4 g/dL
- gamma-GTP (9 h): 1.2 IU/L
- TERMINAL_BW (24 h): 217.9 g
- APTT (24 h): 23.6 s
- Bas (24 h): 0%
- Eos (24 h): 1%
- Fbg (24 h): 311.6 mg/dL
- Hb (24 h): 13.4 g/dL
- Ht (24 h): 40.3%
- Lym (24 h): 80%
- MCH (24 h): 21.1 pg
- MCHC (24 h): 33.3%
- MCV (24 h): 63.4 fL
- Mono (24 h): 2.2%
- Neu (24 h): 16%
- PT (24 h): 16.7 s
- Plat (24 h): 126.1 x10_4/uL
- RBC (24 h): 635.4 x10_4/ul
- Ret (24 h): 6.8%
- WBC (24 h): 113 x10_2/uL
- KIDNEY_L (24 h): 1 g
- KIDNEY_R (24 h): 1 g
- KIDNEY_TOTAL (24 h): 1.9 g
- LIVER (24 h): 9.5 g
- A/G (24 h): 1.3
- ALP (24 h): 1785 IU/L
- ALT (24 h): 46.8 IU/L
- AST (24 h): 68 IU/L
- BUN (24 h): 17.6 mg/dL
- CRE (24 h): 0.2 mg/dL
- Ca (24 h): 10.8 mg/dL
- Cl (24 h): 106.4 meq/L
- DBIL (24 h): 0.004 mg/dL
- GLC (24 h): 190.6 mg/dL
- IP (24 h): 7.4 mg/dL
- K (24 h): 4.1 meq/L
- LDH (24 h): 185.4 IU/L
- Na (24 h): 142 meq/L
- PL (24 h): 127.6 mg/dL
- RALB (24 h): 3.1 g/dL
- TBIL (24 h): 0.014 mg/dL
- TC (24 h): 68.8 mg/dL
- TG (24 h): 73 mg/dL
- TP (24 h): 5.5 g/dL
- gamma-GTP (24 h): 1.2 IU/L
